Laboratory results as given in patent publication US20100197789A1, “ANTI-OBESITY AGENT AND USE THEREOF” (National University Corporation Nagoya University, priority 2006, published 2010).

Tests used:
Format in all cases: in vivo, mouse
[1] = tested on: db/^+m mice; experiment: Rectal temperature, db/+m mice; conditions: (±)-baclofen 2.7 mg/dl in drinking water for 5 weeks
Experimental: 5 week-old male C57BL/KsJ-db/^+m mice (db/^+m mice: body weight 19 to 23 g, Japan SLC, Inc.) were purchased and individually fed in tip cages. To the db/^+m mice, normal pellet diet (CE-2) was administered under free water intake and free food intake. A body weight and a food intake amount over 24 hours were measured every day from the start of feeding. On day 3 after the start of feeding, blood was taken from an orbit after 6 hour-fasting and a blood glucose level and a blood insulin concentration were measured. The db/^+m mice were divided into two groups (10 mice per each group) so that a body weight, a 24 hour-food intake amount, a blood glucose level, and a blood insulin concentration were equal, and defined to be a control group and a baclofen treated group. […] A food intake amount and a body weight of the db/^+m mice were measured over time, and a rectal temperature was measured 5 weeks after the start of the administration. […]
R-baclofen and S-baclofen were administered to db/db/mice and (±)-baclofen was administered to db/^+m mice respectively for 5 weeks, and rectal temperatures were then continuously measured for 3 days at 20 o'clock immediately before the dark period when feed intake was started in the mice. […] That is, the rectal temperatures were measured by using a digital thermistor (manufactured by NATSUME SEISAKUSHO CO., LTD.).

[2] = tested on: DIO mice; experiment: Rectal temperature, oxygen consumption and motor activity, DIO mice
Experimental: (±)-baclofen was orally administered to db/db mice and DIO mice for 5 weeks and rectal temperatures were measured 5 weeks after the start of the administration, and oxygen consumptions and motor activity were measured by using a small animal metabolism measuring system (model MK-5000: Muromachi Kikai Co., Ltd.).

[3] = tested on: db/db mice; experiment: Blood glucose level, HbA1c and plasma hormone concentrations after 5-week administration, db/db mice; conditions: 1.1 and 2.7 mg/dl in drinking water
Experimental: (§1) 5 week-old male C57BL/KsJ-db/db mice (db/db mice: body weight 19 to 25 g, Japan SLC, Inc.) were purchased and individually fed in tip cages. For the db/db mice, normal pellet diet (CE-2) was administered under free water intake and free food intake. A body weight and a food intake amount over 24 hours were measured every day from the start of feeding. On day 3 after the start of feeding, blood was taken from an orbit after 6 hour-fasting and a blood glucose level and a blood insulin concentration were measured. The db/db mice were divided into three groups (10 mice per each group) so that a body weight, a 24 hour-food intake amount, a blood glucose level, and a blood insulin concentration were equal, and defined to be a control group, a low concentration baclofen treated group, and a high concentration baclofen treated group. After division into the groups, from day 5 after the start of feeding, (±)-baclofen was dissolved in drinking water and 5 week-continuous oral administration to the baclofen treated groups was started. (±)-baclofen was dissolved in drinking water at a concentration of 1.1 mg/dl in the low concentration treated group and at a concentration of 2.7 mg/dl in the high concentration treated group. A food intake amount and a body weight were measured over time during the period of 5 week-administration of (±)-baclofen, blood was taken after the end of the 5-week administration, and the db/db mice were sacrificed by cervical luxation. Brains, epididymal white adipose tissues, subcutaneous white adipose tissues and brown adipose tissues were surgically removed. The brains and brown adipose tissues were frozen in dry ice and liquid nitrogen immediately after the removal and then preserved at −80° C. The epididymal white adipose tissues and subcutaneous white adipose tissues were measured in weights, and then fixed in 4% formaldehyde and preserved at 4° C.
The blood glucose level was measured by a glucose analyzer Antisense (HORIBA, Ltd.) promptly after taking blood from an orbit. HbA1c was measured by a glycohemoglobin analyzer HLC-723 GHbV (manufactured by TOSOH Corporation) after preserving blood at −80° C.
After taking blood from an orbit by using a hematocrit tube coated with heparin, blood was centrifuged at 3500 rpm at 4° C. for 15 minutes, and plasma was preserved at −80° C. The plasma concentrations of insulin, leptin and adiponectin were measured by the ELISA method (levis insulin kit (mouse): Shibayagi Co., Ltd., Morinaga Leptin assay kit: Morinaga Institute of Biological Science, Inc., Mouse/rat adiponectin ELISA kit: OTSUKA Pharmaceutical Co., Ltd.).

[4] = tested on: db/db mice; experiment: Histological study of adipose tissue (weights, fat cell size), db/db mice; conditions: after 5 week-administration, 1.1 and 2.7 mg/dl in drinking water
Experimental: as §1, with “4° C. […]” for “4° C.”

NCC(CC(=O)O)c1ccc(Cl)cc1 (racemic) [(±)-baclofen, (RS)-4-amino-3-(4-chlorophenyl)butanoic acid]
rectal temperature [1]: did not give a significant effect
oxygen consumption ([2]; (±)-baclofen oral 5 weeks): significantly increased
body temperature (rectal) ([2]; (±)-baclofen oral, 5 weeks after start of administration): significantly raised
blood adiponectin concentration ([3]; after 5 week-administration): Significant increases
blood leptin concentration ([3]; after 5 week-administration): Significant increases
fasting blood insulin level ([3]; after 5 week-administration): No change
HbA1c value ([3]; after administration for 5 weeks): Significant decreases
fasting blood glucose level ([3]; fasting for 6 hours, after 5 week-administration): significant suppression
size of a fat cell (epididymal white adipose tissue, H-E stain) [4]: decreases
weight of epididymal white adipose tissues [4]: Significant decreases
weight of subcutaneous white adipose tissue [4]: no significant decrease
